Results as given in patent publication EP2575807B1, “FORMULATION BASED ON SULPIRIDE AND A SYNERGISTIC HOMEOPATHIC COMPOSITION FOR TREATMENT OF DEPRESSIVE SYNDROME” (Novak, Maja, priority 2010, dated 2011).

Assays:
[1] = system: women suffering of depressive syndrome; experiment: Controlled study of antidepressant activity, Hamilton rating scale for depression (HAMD test); type: in vivo
Procedure: They are divided onto two groups by randomization: • (i) A control group (N = 32) received once-a-day combined (in the same syringe) dose of 20 mg of sulpiride (1; 0.4 mL) diluted with physiological solution (2.0 mL) by subcutaneous injection during three months (90 days).
The duration of administering was three months (90 days; also subcutaneously).
Neurosurg. Psychiatr. […] Psychiatr.
For the 17-item version of HAMD test, scores can range from 0 to 54. […]
The above results were subjected to paired T-test. […] Paired T-test is usually chosen to establish the difference between groups, i.e. their mean values during the Study.
The study was followed by the use of Hamilton rating scale for depression (HAMD test).

[2] = cited from earlier work

CCN1CCCC1CNC(=O)c1cc(S(N)(=O)=O)ccc1OC (racemic) [sulpiride, (R,S)-(±)-5-(aminosulfonyl)-N-[(1-ethylpyrrolidin-2-yl)methyl]-2-methoxybenzamide]
HAMD ([1]; After the Study, once-a-day subcutaneous injection, 20 mg of sulpiride, three months (90 days)): 17.34 ± 8.77 | HAMD ([1]; Before the Study (baseline), 17-item HAMD score, range 0 to 54): 18.91 ± 9.19 | Mean difference (paired T-test, HAMD before vs after the Study) ([1]; once-a-day subcutaneous injection, 20 mg of sulpiride, 90 days): 1.60 | oral bioavailability [2]: 25-35%
